Measured values as given in PubChem BioAssay (NCI).
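Test compounds were applied to cells in 96-well plates for 48 hours at 5 doses. The concentration for 50% growth inhibition is given as GI50. TGI marks complete inhibition of growth.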

tested on: P388/ADR leukemia; assay: NCI tumour cell line growth inhibition, 48 h

`COc1cc(/C=C/C(=O)Oc2ccccc2)ccc1C(=O)O/C=C/c1ccccc1` and `CS(=O)(=O)CS(=O)(=O)OCCCl` cannot be ordered by TGI: greater than 100 µM for the first, 447 µM for the second.

tested on: SN12K1 renal; assay: NCI tumour cell line growth inhibition, 48 h

`COc1cc(/C=C/C(=O)Oc2ccccc2)ccc1C(=O)O/C=C/c1ccccc1` and `CS(=O)(=O)CS(=O)(=O)OCCCl` cannot be ordered by TGI: greater than 100 µM for the first, 963 µM for the second.

tested on: XF 498 CNS; assay: NCI tumour cell line growth inhibition, 48 h

Compared with `CCc1cccc(C)c1NC(=O)CC1C(=O)Nc2ccccc2S1=O` (stereo unspecified), `Cc1c(Cl)cccc1NC(=O)c1cccc([N+](=O)[O-])c1O` is lower in TGI: greater than 100 µM for the first, 38.8 µM for the second.

`CSc1ccc2c(cc1=O)[C@@H](NC(=O)c1cc(O)c(O)c(O)c1)CCc1cc(O)c(O)c(O)c1-2` and `COc1cc2c(cc1OC)C1Cc3cc(OC)c(OC)cc3N1CC2` (stereo unspecified) are within 1.5-fold of each other in TGI: 39.4 µM for the first, 43.6 µM for the second.

`COc1cc(-c2nnc3n2NC=C(C(=O)O)S3)cc(OC)c1OC` and `COc1cc(/C=C/C(=O)Oc2ccccc2)ccc1C(=O)O/C=C/c1ccccc1` cannot be ordered by TGI: greater than 100 µM for the first, greater than 100 µM for the second.

`C[P+](C)(C)c1ccccc1` and `CC1CCC(C(C)(C)c2ccccc2)C(=O)C1` (stereo unspecified) cannot be ordered by TGI: greater than 100 µM for the first, greater than 100 µM for the second.

`O=C1c2ccccc2C(=O)N1C/C=N/NS(=O)(=O)c1ccc(Br)cc1` and `Nc1ccc(C2=N/C(=C\c3cccc(N)c3)C(=O)O2)cc1` cannot be ordered by TGI: greater than 100 µM for the first, greater than 100 µM for the second.

`NC(=O)c1cn(Cc2ccccc2)c(=O)n1Cc1ccccc1` and `CCOc1ccc(N=Cc2c3ccccc3nc3ccccc23)cc1` cannot be ordered by TGI: greater than 100 µM for the first, greater than 100 µM for the second.

Compared with `CCOC(=O)C(C)(c1c(C)[nH]c2ccccc12)c1c(C)[nH]c2ccccc12`, `O=C1C2[C@@H](C(=O)N1c1ccc(Br)cc1)C13C(=CC2([N+](=O)[O-])[C@@H]2C(=O)N(c4ccc(Br)cc4)C(=O)[C@@H]21)c1ccccc1N3c1ccccc1` (stereo partly specified) is higher in TGI: 39.4 µM for the first, greater than 100 µM for the second.

`CC1COS(=O)O1` (stereo unspecified) and `CC12CCC(=O)N1c1cccnc1N2` (stereo unspecified) cannot be ordered by TGI: greater than 100 µM for the first, greater than 100 µM for the second.

`O=C1CC2CCN(C(=O)c3ccccc3)CC2CCN1` (stereo unspecified) and `O=C1C=CC(=CC=C2C=CN(CCCCCCCCCCC(=O)NCCCCCCCCCCCC(=O)O)C=C2)C=C1` cannot be ordered by TGI: greater than 100 µM for the first, greater than 100 µM for the second.

First: C1COCCSC2=C(SCCO1)SC(=C1SC3=C(SCCOCCOCCS3)S1)S2
Second: COc1cc(/C=N\O[Si](C)(C)C(C)(C)C)ccc1O[Si](C)(C)C(C)(C)C
The TGI of the first is lower: 73.3 µM for the first, greater than 100 µM for the second.

tested on: KM20L2 colon; assay: NCI tumour cell line growth inhibition, 48 h

`CCc1cccc(C)c1NC(=O)CC1C(=O)Nc2ccccc2S1=O` (stereo unspecified) and `Cc1ccc2c(c1-c1ccccc1)C(=O)OC2` are within 1.5-fold of each other in TGI: 90.4 µM for the first, 60.7 µM for the second.

`Cc1ccc(N2C(=O)N(c3ccc(C)cc3)C3(SC=NN3C)C2=O)cc1` (stereo unspecified) and `O=C1c2ccc3c4ccccc4n(-c4ccccc4)c3c2C(=O)N1c1ccc(Cl)cc1` cannot be ordered by TGI: greater than 100 µM for the first, greater than 100 µM for the second.

Compared with `CCC[CH2][Sn]1([CH2]CCC)[O]CC(COc2c(Cl)cc(Cl)cc2Cl)[O]1` (stereo unspecified), `CCOC(=O)C1=C(Nc2ccc(Br)cc2)OCC1=O` is higher in TGI: 10.7 µM for the first, greater than 100 µM for the second.

Compared with `CSc1ccc2c(cc1=O)[C@@H](NC(=O)c1cc(O)c(O)c(O)c1)CCc1cc(O)c(O)c(O)c1-2`, `Cc1c(Cl)cccc1NC(=O)c1cccc([N+](=O)[O-])c1O` is lower in TGI: greater than 100 µM for the first, 54.3 µM for the second.

`COc1cc(-c2nnc3n2NC=C(C(=O)O)S3)cc(OC)c1OC` and `COc1cc2c(cc1OC)C1Cc3cc(OC)c(OC)cc3N1CC2` (stereo unspecified) cannot be ordered by TGI: greater than 100 µM for the first, greater than 100 µM for the second.

`C[P+](C)(C)c1ccccc1` and `CC1CCC(C(C)(C)c2ccccc2)C(=O)C1` (stereo unspecified) cannot be ordered by TGI: greater than 100 µM for the first, greater than 100 µM for the second.

`O=C1c2ccccc2C(=O)N1C/C=N/NS(=O)(=O)c1ccc(Br)cc1` and `Nc1ccc(C2=N/C(=C\c3cccc(N)c3)C(=O)O2)cc1` cannot be ordered by TGI: greater than 100 µM for the first, greater than 100 µM for the second.

`COc1cc(/C=C/C(=O)Oc2ccccc2)ccc1C(=O)O/C=C/c1ccccc1` and `CCOc1ccc(N=Cc2c3ccccc3nc3ccccc23)cc1` cannot be ordered by TGI: greater than 100 µM for the first, greater than 100 µM for the second.

First: NC(=O)c1cn(Cc2ccccc2)c(=O)n1Cc1ccccc1
Second: CCOC(=O)C(C)(c1c(C)[nH]c2ccccc12)c1c(C)[nH]c2ccccc12
The TGI of the first is higher: greater than 100 µM for the first, 31 µM for the second.

`CC1COS(=O)O1` (stereo unspecified) and `C=CCC1(C)CCCCC1(O)CS(=O)c1ccccc1` (stereo unspecified) cannot be ordered by TGI: greater than 100 µM for the first, greater than 100 µM for the second.

`O=C1CC2CCN(C(=O)c3ccccc3)CC2CCN1` (stereo unspecified) and `CC12CCC(=O)N1c1cccnc1N2` (stereo unspecified) cannot be ordered by TGI: greater than 100 µM for the first, greater than 100 µM for the second.

`O=C1C=CC(=CC=C2C=CN(CCCCCCCCCCC(=O)NCCCCCCCCCCCC(=O)O)C=C2)C=C1` and `CC(=O)[CH-]C(=O)c1ccccc1.CC(=O)[CH-]C(=O)c1ccccc1.O=S(=O)([O-])c1cc([O-])c2c([O-])cc(S(=O)(=O)[O-])cc2c1.[Na+].[Ti+4]` cannot be ordered by TGI: greater than 100 µM for the first, greater than 100 µM for the second.

`N#Cc1c(-c2ccco2)cc(-c2ccc(N)cc2)[nH]c1=O` and `COc1cc(/C=N\O[Si](C)(C)C(C)(C)C)ccc1O[Si](C)(C)C(C)(C)C` cannot be ordered by TGI: greater than 100 µM for the first, greater than 100 µM for the second.

`C1COCCSC2=C(SCCO1)SC(=C1SC3=C(SCCOCCOCCS3)S1)S2` and `CS(=O)(=O)CS(=O)(=O)OCCCl` cannot be ordered by TGI: greater than 100 µM for the first, 1240 µM for the second.

With `NCCN.O=C([O-])[O-].O=C([O-])[O-].[Co+3].[K+]` the TGI was greater than 100 µM.

Compared with `CCC[CH2][Sn]1([CH2]CCC)[O]CC(COc2c(Cl)cc(Cl)cc2Cl)[O]1` (stereo unspecified), `CC(=O)[CH-]C(=O)c1ccccc1.CC(=O)[CH-]C(=O)c1ccccc1.O=S(=O)([O-])c1cc([O-])c2c([O-])cc(S(=O)(=O)[O-])cc2c1.[Na+].[Ti+4]` is higher in GI50: 2.98 µM for the first, greater than 100 µM for the second.

`NCCN.O=C([O-])[O-].O=C([O-])[O-].[Co+3].[K+]` was tested, and the GI50 was greater than 100 µM.
